Like-named read-outs stand apart in the source and are kept apart here.
Key:
Type in all cases: in vivo, rat
[1] = test system: hypoxia-exposed and room-air Sprague-Dawley rats; conditions: for mean RVP compared to the veh-hyp group: hypoxia 10 days (FIG. 7)
Experimental: Outbred 6-week-old Sprague-Dawley rats, 200-220 g body weight, were obtained from Hilltop Laboratories, Scottdale, Pa. Recombinant human relaxin (rhRlx) (5.0 mg/ml in 20 mM sodium acetate, pH5.0) and vehicle (20 mM acetate, pH5.0) were provided by Connetics Corporation (Palo Alto, Calif.). Miniosmotic pumps were purchased from Alza Corporation (Model 2002, Alza Corp., Palo Alto, Calif.).
Mini osmotic pumps were filled to deliver rhRlx at […], or vehicle alone. Osmotic pumps were inserted subcutaneously in rats under a combination of ketamine and xylazine anaesthesia. The area around the back of the neck was shaved, cleaned with alcohol, and a small incision made for pump insertion. Incision was closed with surgical staples. After the animals were fully conscious they were randomly assigned to either hypoxic exposure or room air. Rats were subjected to either air or hypoxia, as described below. There were three groups of rats subjected to air: vehicle-treated (veh-air), 0.05 mg/kg/day rhRlx (low rhRlx-air), and 0.24 mg/kg/day rhRlx (hi rhRlx-air). There were three groups subjected to hypoxia: vehicle (veh-hyp), 0.05 mg/kg/day rhRlx (low rhRlx-hyp), and 0.24 mg/kg/day rhRlx (hi rhRlx-hyp).
Rats were exposed to hypoxia (10% O2, 90% N2) at ambient pressure (Kerr et al., 1987) for 10 days, control groups were exposed to room air in the same room. Hypoxic animals were fed standard rat chow and water. Age-matched control groups were weight-matched by feeding the amount of food consumed by the rats in the hypoxic groups. At the end of the test period, mean right ventricular pressure (RVP) was measured in rats anaesthetized with an intraperitoneal injection of 50 mg/kg pentobarbital sodium. The portal vein was then cut for hematocrit measurement (Hct) and blood sampling, and the ratio of the right ventricle to left ventricle plus septum measured [RV/(LV+S)] (Kerr et al., 1987). To determine the effect of acute administration of rhRlx on pulmonary artery pressure, four 10-day hypoxic rats were anaesthetized, as previously described, and RVP monitored for 1 hr following administration of a bolus dose of 2 μg rhRlx in 0.2 ml total volume, followed by an infusion of 2 μg rhRlx in 0.2 ml, given over 10 min.
(§1) The pulmonary artery trunk, right and left extrapulmonary branches were removed en bloc, cleaned of surrounding tissue, and weighed. The left lung was and excised and the entire hilar artery dissected from parenchyma and weighed (Tozzi et al. (1994) Am. J. Respir. Crit. Care Med. 149:1316-1326). Segments were hydrolyzed, and total hydroxyproline and protein determined (Poiani et al. (1990) Circ. Res. 66:968-978). Approximately 3 cc of whole blood was centrifuged, serum aspirated, and sample frozen at −20° C. for determination of rRlx levels by ELISA assay.

conscious male rats = test: 5-day rhRLX infusion in conscious male rats: MAP, renal function, hematocrit, plasma osmolality, sodium
Experimental: After being placed in the experimental cage, a 100 μl blood sample was drawn from the arterial catheter into a heparinized tube for measurement of baseline plasma osmolality, sodium concentration and hematocrit prior to the administration of any fluids. […] Next, a bolus of inulin (IN, 0.2 ml of a 20% stock solution/100 g BW) and para-aminohippurate (PAH, 0.1 ml of a 2% working solution/100 g BW) was given over 1 minute into the venous catheter followed by a constant infusion of the two reagents at a rate of 0.5 mg/minute per 100 g BW and 0.1 mg/minute per 100 g BW, respectively. The flow rate was 19 μl/minute delivered by a Model 200 Syringe Pump (kd Scientific, Boston Mass.). Finally, the obturator in the bladder catheter was removed, and the latter was extended with a short piece of polyethylene tubing to facilitate the collection of urine.
The technique of urine collection has proven to be reliable. Conrad and Colpoys (1986) J. Clin. Invest. 77:236-245; Danielson and Conrad (1995) J. Clin. Invest. 96:482-490; and Danielson and Conrad (1996) Circ. Res. 79:1161-1166. Indeed, after reaching steady-state in this study, the excretion rates of IN and PAH were 91±3 and 100±4% of their respective infusions. After measuring baseline mean arterial pressure and renal function, an osmotic minipump (model 2ML1, Alza Co., Palo Alto Calif.) containing either recombinant human relaxin (rhRLX; n=12 rats) or vehicle (n=7) was implanted subcutaneously on the back using light ether anesthesia. […] Five days later, mean arterial pressure (MAP), glomerular filtration rate (GFR), effective renal plasma flow (ERPF), and other parameters were again assessed as describe above. At this time, the excretion rates of IN and PAH were 91±3 and 98±2% of their respective infusion rates. At the end of the experiment, 1.0 ml of blood was collected for determination of serum rhRLX.
Inulin concentration in plasma and urine was measured by the anthrone method, and PAH was determined by the method of Bratton and Marshall as modified by Smith. This method is described in Conrad (1984) Kidney Int. 26:24-29, and references cited therein. Plasma sodium was measured by a Kodak Ektachem Instrument (Rochester, N.Y.). Plasma osmolality was determined by freezing point depression (Advanced Osmometer, Model 3MO, Advanced Instruments, Needham Heights Mass.). All urine and plasma samples from MWRI were coded and sent to UNM for analysis of IN, PAH, sodium and osmolality (by L.A.D.). The rhRLX in serum was measured using a quantitative sandwich immunoassay, again in a blinded fashion. Danielson et al. (1999) J. Clin. Invest. 103:525-533.

[2] = Relaxin ELISA in serum (Example 5); conditions: day 10
Text: as §1
Levels of relaxin in serum were measured in a quantitative sandwich immunoassay, as previously described (Unemori et al. (1996) J. Clin. Invest. 98:2739-2745).

## rhRLX: recombinant human relaxin, identical in amino acid sequence to the product of the human H2 gene; A chain of 24, B chain of 29 amino acids
[1]; 1 mg-air
  Hydroxyproline Hilar: 38.0 ± 2.3 μg/vessel
  Hydroxyproline MPA: 76.4 ± 4.0 μg/vessel
  Protein Hilar: 0.78 ± 0.3 mg/vessel
  Protein MPA: 2.6 ± 0.2 mg/vessel
[1]; 1 mg-hyp
  Hydroxyproline Hilar: 41.0 ± 3.3 μg/vessel
  Hydroxyproline MPA: 95.2 ± 3.6 μg/vessel
  Protein Hilar: 0.90 ± 0.2 mg/vessel
  Protein MPA: 2.3 ± 0.2 mg/vessel
[1]; 5 mg-air
  Hydroxyproline Hilar: 33.5 ± 1.5 μg/vessel
  Hydroxyproline MPA: 75.2 ± 4.0 μg/vessel
  Protein Hilar: 1.1 ± 0.1 mg/vessel
  Protein MPA: 2.5 ± 0.3 mg/vessel
[1]; 5 mg-hyp
  Hydroxyproline Hilar: 37.0 ± 5.0*↑ μg/vessel
  Hydroxyproline MPA: 86.6 ± 6.0*↑ μg/vessel
  Protein Hilar: 0.75 ± 0.8 mg/vessel
  Protein MPA: 2.0 ± 0.4 mg/vessel
[1]; hi rhRlx-hyp
  RV/(LV+S) ratio compared to the veh-hyp group: significantly reduced
[1]; high dose
  mean RVP compared to the veh-hyp group: decreased
[1]; low dose
  mean RVP compared to the veh-hyp group: decreased
[1]; low rhRlx-hyp
  RV/(LV+S) ratio compared to the veh-hyp group: significantly reduced
Conscious male rats; 4 μg/hour for 5 days (FIG. 3)
  effect on ERPF: significantly increased
  effect on ERVR: reducing
  effect on GFR: significantly increased
  effect on MAP: did not significantly affect
Conscious male rats; rhRLX 4 μg/hour for 5 days
  HCT (hematocrit), change from the baseline: −5.0 ± 0.6 %
  PNa+ (plasma sodium concentration), change from the baseline: −5.3 ± 0.4 mEq/L
  Posm (plasma osmolality), change from the baseline: −10.9 ± 1.4 mOsm/kg H2O
[2]; 1 mg-air (low rhRlx-air)
  rRlx serum levels: 2.9 ± 1.0 ng/mL
[2]; 1 mg-hyp (low rhRlx-hyp)
  rRlx serum levels: 3.2 ± 0.4 ng/mL
[2]; 5 mg-air (hi rhRlx-air)
  rRlx serum levels: 9.9 ± 2.8 ng/mL
[2]; 5 mg-hyp (hi rhRlx-hyp)
  rRlx serum levels: 11.5 ± 2.5 ng/mL

Reference: patent US6723702B2, “Use of relaxin treat diseases related to vasoconstriction” (RAS Medical, Inc., priority 2000, dated 2004)
